Laboratory results as given in patent EP3871678A1, “PRO-ANGIOGENIC COMPOUNDS” (UNIVERSITE DE BORDEAUX, priority 2020, dated 2021).

Assays:
[1] = In vivo toxicity after subcutaneous injection of hydrogels (serum ALT, AST, LDH); parameters: species or system OF-1 female mice; conditions: hydrogels injected subcutaneously in mice, serum markers up to day 21
Protocol: (§1) 10-week-old OF-1 female mice (Charles Rivers, France) were used for this study. Before the bilateral subcutaneous injection of hydrogels, mice were anaesthetized using 4.5% isoflurane gas and maintained throughout surgery at 2.5% isoflurane with a face mask. The animals were depilated before surgery. The three different hydrogels were prepared as mentioned above and collected in 1 ml syringes, when the solution was in viscous form. The hydrogels were injected subcutaneously by 21-gauge needle on the dorsal side of the animals.
The in vivo toxicity of the hydrogels formed from compounds 17, 20 and GNF was investigated by serum biochemical evaluation such as alanine aminotransferase (ALT Activity Assay Kit, Sigma-Aldrich, ref MAK052), aspartate aminotransaminase (AST Activity Assay Kit, Sigma-Aldrich, ref MAK055), and lactate dehydrogenase (LDH Assay Kit, Abcam, ref ab102526). At day 0 before surgery and three-time points after implantation (3, 7, and 21 days), blood was collected from retro-orbital sinus. The blood samples were allowed to clot then followed by centrifugation to collect the serum. The serum was used for analysis as recommended by the manufacturers.

[2] = tested on: blood vessels; experiment: In vivo angiogenesis around subcutaneously injected hydrogels (CD31 immunostaining, blood vessel count); conditions: hydrogel injected subcutaneously in mice, day 21, CD31 immunostaining, four random regions
Protocol: as §1
Subcutaneous injection was carried out, as indicated in example 3, in order to characterize the behavior of the hydrogels after subcutaneous injection and in situ gelation. Animals were sacrificed by cervical dislocation one or three weeks after injection of the hydrogel. The biomaterials (i.e. hydrogel) together with the skin surrounding the injection point were harvested after 7, or 21 days and embedded in paraffin. Histological sections of skin portions associated to the hydrogel were then stained to assess the degradation pattern, cell infiltration (data not shown) and angiogenesis.
The blood vessels in and around the hydrogels 21 days after implantation were identified by immunolabelling with rabbit anti-CD31 antibody (Abcam, ref ab28364 dilution:1/100) followed by incubation with HRP-conjugated anti-rabbit secondary antibody (Vector MP-7401, dilution:1/2)
During the regeneration process, the development of neovessels in the remodeling tissue is of major importance. Therefore, immunostaining of CD31, an endothelial cell marker, was performed on day 21 to assess angiogenesis.
CD31 positive cells were not found inside the hydrogels, showing that the non-degraded hydrogels were bad substrates for blood vessel ingress. Figure 11B depicts the quantification of blood vessels counted manually per 0.2mm^2 at four different random regions in the tissue surrounding each hydrogel. […]

[3] = tested on: CAM of chick embryos (Gallus gallus); experiment: Chick chorioallantoic membrane (CAM) angiogenesis assay; type: in vivo; conditions: 20 µl of 500 µg/ml in DMEM on day 13 and 14, evaluated day 17, versus DMEM control
Protocol: The angiogenesis assay was performed on the CAM of chick embryos (Gallus gallus) (E.A.R.L. Morizeau, Dangers, France). Embryos were incubated at 37°C and 70% humidity to […]. On day 3 of development, 3-5 ml of egg white was withdrawn by punctuating the air chamber with the syringe, and a window was made by cutting the eggshell and sealed with Durapore® tape. On day 13, prepared plastic rings (made from Nunc Thermanox® coverslips, diameter 13 mm and thickness 0.2mm) were placed on the intact CAM. 20 µl of the molecule (concentration 500 µg/ml in DMEM medium) or an equivalent volume of DMEM alone as control were deposited in the center of the plastic rings. The treatment was repeated the following day followed by photo documentation (day 14). On day 17, the eggs were fixed by addition of 2 ml of 4% paraformaldehyde (Antigenfix) for 30 min at room temperature. Imaging was performed with a stereomicroscope (Nikon SMZ800) using a digital camera (Nikon Coolpix 950). The images were scored for morphological changes of blood capillaries such as sprouting and tortuosity (0=normal, 1=overrepresented) by five observers using a blinded screening test (data not shown).
The angiogenic response was evaluated on day 17 based on two morphological parameters: sprouting, and presence of tortuous vessels (data not shown). […]

[4] = In vitro degradation of the hydrogels (weight loss in PBS); type: physicochemical; conditions: hydrogel 1.5% (w/v), PBS 1X, after 3 weeks at 37°C
Protocol: Hydrogels were prepared with compound 17, compound 20, GNF at a concentration of 1.5% (w/v) by dissolving the powder in sterile phosphate buffered saline solution (PBS 1X, pH 7.4). The suspensions were heated at 65 °C for GNF and 80°C for the compounds 17 and 20. The GNF solution was incubated at 37 °C for 30 min to form a gel, whereas the other molecules formed the gel within 5 min.
Hydrogels were also prepared from compound A, which was used as a control.
Hydrogel disks (100 µl) were prepared and were incubated in 7 ml of PBS 1X at 37°C for 21 days. All the hydrogel samples were weighed before incubating with the phosphate buffer (initial weight). The samples were removed at different time points (1, 2, 3, 5, 7, 15, and 21 days), weighed immediately after removing the excess of PBS by gently touching the surface of a tissue (Kimwipes™) and put back in the same solution of PBS.
The degradation was monitored by measuring the weight loss of the gels after different periods of incubation. After 3 weeks at 37°C, the remaining weights were 65 ± 4 %, 63 ± 1 %, and 55 ± 2 %, for GNF, compound 17 and compound 20, respectively, as shown on Figure 3..

[5] = MALDI-TOF analysis of degradation products released by the hydrogels in PBS; conditions: hydrogel, 21-day incubation in PBS at 37°C, MALDI-TOF of the buffer
Protocol: The degradation products generated during the 21-day incubation of the samples was determined by analyzing the PBS solution in which they were incubated. At day 21 the PBS was collected and analyzed for the degradation products of individual hydrogels by using mass spectroscopy. Studies, performed in triplicates, allowed for the calculation of degradation kinetics.
In order to assess the fragmentation of the molecules during incubation, the by-products of degradation present in the buffer were analysed by MALDI-TOF (Matrix Assisted Laser Desorption Ionization - Time of Flight) mass spectrometry at the end of the experiment (21 days) (Figures 4 and 5).
The analyses were carried out on the MALDI-TOF-TOF Ultraflex (Bruker) in positive reflector mode (detection of positively charged species in the form of [M + H] + and [M + Na] + ions).The external calibration of the spectrometer was carried out with a mixture of components in the mass range m / z 700-2500. The matrix used is a solution of 2,4,6 trihydroxyacetophenone at 20 mg / ml in EtOH / NH4 citrate 25 mM. The samples were diluted by a factor of 50 in water before MS analysis.

Compound | toxicity to the vital organs [1] | numbers of blood vessels (bv) in the vicinity of the hydrogel [2] | sprouting ([3]; p = 0.0046 (Fisher's exact test)) | tortuous vessels ([3]; p = 0.0195 (Fisher's exact test)) | remaining weights [4] | fragmentation of the molecules during incubation (degradation products) [5]
1,14-bis-tetradecanyl-5'-[(4-methylamide)-1H-1,2,3-triazol-1-yl]-N-3-[1-((β-D-glucopyranoside)-1H-1,2,3-triazole-4-yl)methyl]-5'-deoxy thymidine [compound 20] | did not show any toxicity to the vital organs | 7.95 ± 0.74 bv/0.2 mm2 | – | – | – | –
Cc1cn([C@H]2C[C@H](O)[C@@H](CO)O2)c(=O)n(Cc2cn([C@@H]3O[C@H](CO)[C@@H](O)[C@H](O)[C@H]3O)nn2)c1=O [GN-1, N-3-[1-((β-D-Glucopyranoside)-1H-1,2,3-triazol-4-yl)methyl] thymidine] | – | – | more CAMs that were treated with GN-1 exhibited sprouting and tortuous vessels | more CAMs that were treated with GN-1 exhibited sprouting and tortuous vessels | – | –
Cc1cn([C@H]2C[C@H](O)[C@@H](Cn3cc(CNC(=O)CCC(F)(F)C(F)(F)C(F)(F)C(F)(F)C(F)(F)C(F)(F)C(F)(F)C(F)(F)F)nn3)O2)c(=O)n(Cc2cn([C@@H]3O[C@H](CO)[C@@H](O)[C@H](O)[C@H]3O)nn2)c1=O [GNF] | did not show any toxicity to the vital organs | 6.10 ± 1.07 bv/0.2 mm2 | – | – | 65 ± 4% | fragmentations of the hydrogel molecules as a result of degradation
Cc1cn([C@H]2C[C@H](O)[C@@H](Cn3cc(CNC(=O)NCCCCCCCCCCCCNC(=O)NCc4cn(C[C@H]5O[C@@H](n6cc(C)c(=O)n(Cc7cn([C@@H]8O[C@H](CO)[C@@H](O)[C@H](O)[C@H]8O)nn7)c6=O)C[C@@H]5O)nn4)nn3)O2)c(=O)n(Cc2cn([C@@H]3O[C@H](CO)[C@@H](O)[C@H](O)[C@H]3O)nn2)c1=O [compound 17, 1,12-bis-dodecanyl-5'-[(4-methylurea)-1H-1,2,3-triazol-1-yl]-N-3-[1-((β-D-glucopyranoside)-1H-1,2,3-triazole-4-yl)methyl]-5'-deoxy thymidine] | did not show any toxicity to the vital organs | 4.30±0.41 bv/0.2 mm2 | – | – | – | fragmentations of the hydrogel molecules as a result of degradation
